{"source": "patent US10278941B2", "about": "“Use of 2,5-dihydroxybenzene compounds and derivatives for the treatment of glioma” (AmDerma Pharmaceuticals, LLC, priority 2006, dated 2019)", "key": {"rat glioma C6 cells": {"system": "rat glioma C6 cells", "experiment": "Rat glioma C6 cell proliferation, crystal violet staining", "type": "cell-based", "settings": "48 h", "method": "The cell line used was rat glioma C6 cells. The cells were cultured as previously described (Cuevas P et al. Neurol Res, 2005). The cells were cultured as adherent cells in Dulbecco's modified Eagle's medium, supplemented with 7.5% (v/v) of fetal bovine serum, 10 μg/ml of streptomycin and 10 units/ml of penicillin. The tumor cells were seeded in 24-well plates at a density of 10,000 cells/well, and were incubated at 37° C. in a humidified chamber with 5% CO2. Once adhered, the cells were treated or not (controls) with 2,5-dihydroxybenzoate at 100, 200, 500 or 1000 μM and they were allowed to proliferate for 48 h. After this time the glioma cell proliferation was evaluated by means of staining the fixed cells with crystal violet. The number of cells is proportional to the amount of retained dye, which was spectrophotometrically determined by measuring the absorbance at 595 nm once the dye was extracted from the cells.\n(§1) The cell line used was the C6 cell line and the experiment was carried out as described in Example 2. Once adhered, the cells were treated or not (controls) with increasing concentrations of 2,5-DHC (10, 25, 50 and 100 μM) and they were allowed to proliferate for 48 h. After this time the glioma cell proliferation was evaluated by means of staining the fixed cells with crystal violet. The number of cells is proportional to the amount of retained dye, which was determined spectrophotometrically by measuring absorbance at 595 nm once the dye was extracted from the cells.\nas §1, with “examples 2 and 3.” for “Example 2.”, “(5A-2HBS) (500 μM) or (2A-5HBS) (500” for “increasing concentrations of 2,5-DHC (10, 25, 50 and 100”, “measuring the” for “measuring”"}, "bFGF-induced fibrosis": {"system": "bFGF-induced fibrosis", "experiment": "bFGF-induced fibrosis, subcutaneous gelatin sponge implant", "type": "in vivo, Sprague-Dawley rats", "settings": "sponge with bFGF plus compound 100 μM, 7 days", "method": "Sterile gelatin sponges (1 mm^3; Curaspon Dental, Clinimed Holding, Zwanenburg, The Netherlands) were subcutaneously implanted in the dorsal region of the neck in Sprague-Dawley rats after the induction of intraperitoneal anesthesia. The animals were split into two groups: group A, the sponges were moistened with 200 μl of saline solution which contained 25 μg/ml of heparin and 10 μg/ml of basic FGF (bFGF); group B, the sponges were moistened in the same solution as in group A, but which solution further contained 2,5-dihydroxybenzoate (100 μM). After 7 days, the sponges and the surrounding subcutaneous fat were removed and histologically analyzed."}, "[1]": {"molecular_target": "T1, Fibroblast Growth Factor-1 (FGF-1) (Homo sapiens, UniProt P05230)", "T1 sequence (P05230 whole entry, species assumed)": "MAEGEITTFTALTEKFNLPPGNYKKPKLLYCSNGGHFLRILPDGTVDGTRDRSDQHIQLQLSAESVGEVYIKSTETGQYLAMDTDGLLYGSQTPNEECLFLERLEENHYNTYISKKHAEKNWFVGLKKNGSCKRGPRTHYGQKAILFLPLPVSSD", "experiment": "Crystal diffraction of FGF-1:compound complexes", "type": "binding", "settings": "acetoxyl groups conserved when bound", "method": "Based on the crystal diffraction of the FGF-1:2-acetoxy-5-hydroxybenzene sulfonic acid, FGF-1:5-acetoxy-2-hydroxybenzene sulfonic acid and FGF-1:2,5-diacetoxybenzene sulfonic acid complexes, the structures of the complexes were calculated and represented. FIGS. 13, 14 and 15, which show the surface of the dyed protein according to its electrostatic potential (light grey, negative charge; dark grey, positive charge; white, regions with no charge), show the manner in which 2-acetoxy-5-hydroxybenzene sulfonic acid, 5-acetoxy-2-hydroxybenzene sulfonic acid and 2,5-diacetoxybenzene sulfonic acid interact, respectively, with FGF-1."}, "[2]": {"system": "subcutaneous gliomas (rat glioma C6 cells)", "experiment": "Progression of established subcutaneous C6 gliomas in rats", "type": "in vivo", "settings": "for average size (volume) of the subcutaneous gliomas: vs carrier", "method": "Rat C6 glioma cells were cultured as previously described (Cuevas P et al. Neurol Res, 2005). The C6 cells cultured to confluence in 75 cm^2 flasks were removed and implanted under the abdominal skin in anesthetized rats. The existence of a tumor in the implantation area was observed five days after the implantation of the tumor cells. Only the rats in which the existence of a tumor was observed were randomly assigned to be treated with daily intraperitoneal injections of 2,5-dihydroxybenzene sulfonate (DHBS; 100 mg/kg/day), 2,5-diacetoxybenzene sulfonate (DABS; 100 mg/kg/day) or the carrier (0.9% NaCl). After 10 days of treatment, the subcutaneous gliomas were removed and their volume was calculated according to the formula V=4/3π·(L/2)·(A/2)^2 (in mm^3) where L is the larger diameter and A is the smaller diameter, both expressed in mm.\nTumor cells elude the programmed cell death process or apoptosis that normal cells experience. Apoptosis induction in tumor cells is one way to confront the development of a tumor. To evaluate the effect of potassium 2,5-dihydroxybenzene sulfonate […] on tumor cell apoptosis, 6 μm thick sections of the subcutaneous gliomas described in example 4 were made. The sections were stained with hematoxylin and eosin and observed at a magnification of 313 times using immersion oil. In these conditions, cell apoptosis is shown by the existence of apoptotic bodies appearing as strongly chromogenic granules in the cell nucleus which is frequently fragmented."}, "[3]": {"system": "human prostate cancer PC-3 cells", "experiment": "Human tumor cell proliferation, XTT viability method, PC-3", "type": "cell-based", "settings": "1-200 μM, 96 h", "method": "(§2) The cell lines used were the human prostate cancer PC-3 cells and human lung cancer A549 cells. 2000 cells were seeded per well in 96-well plates and they were allowed to adhere overnight. Then the cells were treated or not (controls) with potassium 2,5-diacetoxybenzene sulfonate (DABS) (1-200 μM) and they were allowed to proliferate for 96 h. After this time, the PC-3 and A549 cell proliferation was evaluated by determining the final number of cells by means of the viability method of yellow tetrazolium salt (XTT). The data were expressed as a percentage of the control (without treatment)."}, "[4]": {"system": "human lung cancer A549 cells", "experiment": "Human tumor cell proliferation, XTT viability method, A549", "type": "cell-based", "settings": "1-200 μM, 96 h", "method": "as §2"}, "[5]": {"system": "human prostate cancer PC-3 cells", "experiment": "Subcutaneous PC-3 tumor progression in athymic mice", "type": "in vivo, athymic mice (Nu/Nu)", "settings": "100 mg/kg daily i.p., 15 days", "method": "5×10^6 human prostate cancer PC-3 cells were subcutaneously injected in male athymic mice (Nu/Nu) of 6-8 weeks of age and weighing 20-26 g. Ten days after the implantation of the tumor cells, the mice were randomly split into two groups: one of them received a daily injection of potassium 2,5-diacetoxybenzene sulfonate (DABS) by intraperitoneal route at a dose of 100 mg/kg dissolved in saline (0.9% NaCl) whereas the other group received a daily injection of carrier (saline). The treatments were administered for 15 days. The volumes of the tumors induced by the implantation of PC-3 cells were measured through the skin on alternating days using a Vernier caliper. The volume was calculated using the formula V=(D×2d)/2, where D is the larger diameter in mm, d is the smaller diameter in mm and V is the volume in mm3. At the end of treatment, the mice were sacrificed and the tumors were weighed."}, "[6]": {"molecular_target": "T1, Fibroblast Growth Factor-1 (FGF-1)", "experiment": "FGF-1-induced mitogenesis in quiescent Balb/c 3T3 fibroblast cultures", "type": "cell-based", "settings": "quiescent Balb/c 3T3 fibroblasts", "method": "The evaluated compounds were used in the form of potassium salt, except in the first case which used calcium salt. The experiments were carried out as described in Fernandez-Tornero C et al. J Biol Chem, 2003."}}, "data": [{"molecule": "O=C(O)C=Cc1cc(O)ccc1O", "note": "[2,5-DHC, 3-(2,5-dihydroxyphenyl)-2-propenoic acid]", "values": [{"measurement": "C6 cell proliferation", "setting": "rat glioma C6 cells; 50 μM", "value": "reduced the C6 cell proliferation to less than half"}, {"measurement": "C6 cell proliferation", "setting": "rat glioma C6 cells; 100 μM", "value": "proliferation was reduced to one tenth"}]}, {"molecule": "O=C([O-])c1cc(O)ccc1O.[K+]", "note": "[2,5-dihydroxybenzoate, potassium 2,5-dihydroxybenzoate]", "values": [{"measurement": "bFGF-induced fibrosis (fibroblasts in septa of connective tissue of adipose tissue)", "setting": "bFGF-induced fibrosis", "value": "reduces bFGF-induced fibrosis"}, {"measurement": "rat glioma C6 cell proliferation (absorbance at 595 nm)", "setting": "rat glioma C6 cells; 100, 200, 500 or 1000 μM", "value": "inhibited rat glioma C6 cell proliferation in a concentration-dependent manner, an effect which was statistically significant at the concentrations of 500 and 1000 μM"}]}, {"molecule": "CC(=O)Oc1ccc(O)cc1S(=O)(=O)[O-].[K+]", "note": "[2A-5HBS, potassium 2-acetoxy-5-hydroxybenzene sulfonate]", "values": [{"measurement": "structural interaction with FGF-1 (binding site in co-crystal)", "setting": "[1]", "value": "occupy a site that is very close to the one that has been described occupied by 2,5-dihydroxybenzene sulfonic acid"}]}, {"molecule": "CC(=O)Oc1ccc(O)c(S(=O)(=O)[O-])c1.[K+]", "note": "[5A-2HBS, potassium 5-acetoxy-2-hydroxybenzene sulfonate]", "values": [{"measurement": "structural interaction with FGF-1 (binding site in co-crystal)", "setting": "[1]", "value": "occupy a site that is very close to the one that has been described occupied by 2,5-dihydroxybenzene sulfonic acid"}]}, {"molecule": "CC(=O)Oc1ccc(OC(C)=O)c(S(=O)(=O)[O-])c1.[K+]", "note": "[DABS, potassium 2,5-diacetoxybenzene sulfonate]", "values": [{"measurement": "tumor cell apoptosis in subcutaneous glioma sections (hematoxylin and eosin)", "setting": "[2]; 100 mg/kg/day i.p., 10 days", "value": "a large number of tumor cells in apoptosis can be observed"}, {"measurement": "probability of being tumor-free (χ2 test)", "setting": "[2]; DABS group vs DHBS group, 100 mg/kg/day", "value": "greater probability of being tumor-free"}, {"measurement": "average size (volume) of the subcutaneous gliomas", "setting": "[2]; i.p. 100 mg/kg/day, 10 days", "value": "this average volume was even less"}, {"measurement": "rats tumor-free when treatment ended", "setting": "[2]; i.p. 100 mg/kg/day, 10 days, all rats had established tumors prior to treatment", "value": 4, "unit": "rats"}, {"measurement": "PC-3 cell proliferation (percentage of control)", "setting": "[3]", "value": "caused a significant inhibition"}, {"measurement": "A549 cell proliferation (percentage of control)", "setting": "[4]", "value": "caused a significant inhibition"}, {"measurement": "tumor growth (tumor volume)", "setting": "[5]", "value": "significantly reduced the human prostate cell tumor growth"}, {"measurement": "weight of the extracted tumor when treatment ended", "setting": "[5]", "value": "significant reduction of the weight of the extracted tumor"}, {"measurement": "structural interaction with FGF-1 (binding site in co-crystal)", "setting": "[1]", "value": "occupy a site that is very close to the one that has been described occupied by 2,5-dihydroxybenzene sulfonic acid"}]}, {"molecule": "O=S(=O)([O-])c1cc(O)ccc1O.[K+]", "note": "[DHBS, potassium 2,5-dihydroxybenzene sulfonate, reference compound]", "values": [{"measurement": "average size (volume) of the subcutaneous gliomas", "setting": "[2]; i.p. 100 mg/kg/day, 10 days", "value": "less than that of the rats treated with carrier"}, {"measurement": "inhibition of mitogenesis induced by FGF-1", "setting": "[6]", "value": "inhibition of the mitogenesis induced by fibroblast growth factor 1"}]}]}
